Measurements as given in patent publication US20230027198A1 (The Rockefeller University, priority 2019, published 2023).

Target: T1, ENL YEATS domain (6×HIS ENL YEATS Domain) binding to H3K9cr peptide (Homo sapiens, UniProt Q03111)
T1 construct: aa1-150; EpiCypher, 15-0069; purchased EpiCypher 15-0069
T1 sequence (Q03111 1-150): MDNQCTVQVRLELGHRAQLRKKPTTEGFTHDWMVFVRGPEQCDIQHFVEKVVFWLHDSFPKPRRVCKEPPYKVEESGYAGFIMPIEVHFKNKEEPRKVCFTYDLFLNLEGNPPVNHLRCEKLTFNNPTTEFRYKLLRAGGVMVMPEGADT
Test: TR-FRET ENL Screening Assay, FRET Assay Protocol 1
Details: H3K9cr peptide (aa1-20)
Description: Compounds of the invention were dissolved in DMSO at a concentration of 3 mM with subsequent dilutions in assay buffer (50 mM HEPES PH7.0, 150 mM NaCl, 0.05% BSA, 0.2% Pluronic F-127) such that the assay contained 1% DMSO. […] Low control (LC) wells received 5 uL of assay buffer instead of ENL protein. […] Compound concentration response curves were performed in duplicate over the concentration range of 0.15 nM-30 uM. The response at each compound concentration minus the LC value was converted to percent inhibition of the vehicle control group response (HC-LC). The relationship between the % inhibition and the compound concentration was analyzed using a four parameter logistic equation to estimate lower and upper asymptotes, the compound concentration producing 50% inhibition (IC50 value) and the slope at the mid-point location.

`CC1C(=O)Nc2cc(C(=O)Nc3cc4[nH]c(CN5CCC[C@@H]5C)cc4cn3)ccc21` (stereo partly drawn) [Example 69, 3-methyl-N-(2-[[(2S)-2-methylpyrrolidin-1-yl]methyl]-1H-pyrrolo[3,2-c]pyridin-6-yl)-2-oxo-1,3-dihydroindole-6-carboxamide] showed an IC50 of 412 nM.

`COCCn1cc(-c2ccc(C(=O)Nc3cc4[nH]c(CN5CCC[C@@H]5C)cc4cn3)nc2)cn1` [Example 71] was tested, and the IC50 was 1040 nM.

With `COCCn1cc(-c2ccc(C(=O)Nc3cc4[nH]c(CN5CCC[C@@H]5C)cc4cn3)c(F)c2)cn1` [Example 72] the IC50 was 364 nM.

In the case of `C[C@H]1CCCN1Cc1cc2cnc(NC(=O)c3ncc(-c4cn[nH]c4)cc3F)cc2[nH]1` [Example 74], the IC50 is reported as 1090 nM.

With `C[C@H]1CCCN1Cc1cc2cnc(NC(=O)c3ccc(-n4ccnc4)cn3)cc2[nH]1` [Example 75] the IC50 was 2340 nM.

Work on `C[C@H]1CCCN1Cc1cc2cnc(NC(=O)c3ccc(-c4c[nH]cn4)cn3)cc2[nH]1` [Example 76] yielded an IC50 of 1590 nM.

Compound `C[C@H]1CCCN1Cc1cc2cnc(NC(=O)c3ccc(-c4cn[nH]c4)cn3)cc2[nH]1` [Example 77] has an IC50 of 963 nM.

`C[C@H]1CCCN1Cc1cc2cnc(NC(=O)c3cc4cnccc4cn3)cc2[nH]1` [Example 78] showed an IC50 of 145 nM.

In the case of `C[C@H]1CCCN1Cc1cc2cnc(NC(=O)c3ccc4[nH]nnc4c3)cc2[nH]1` [Example 79], the IC50 is reported as 511 nM.

With `C[C@H]1CCCN1Cc1cc2cnc(NC(=O)c3ccc(C(=N)N)cc3)cc2[nH]1` [Example 80] the IC50 was 1900 nM.

With `C[C@H]1CCCN1Cc1cc2cnc(NC(=O)c3ccc(CN)cc3)cc2[nH]1` [Example 81] the IC50 was 1200 nM.

With `C[C@H]1CCCN1Cc1cc2cnc(NC(=O)c3ccc4c(N)n[nH]c4c3)cc2[nH]1` [Example 83] the IC50 was 168 nM.

`C[C@H]1CCCN1Cc1cc2cnc(NC(=O)c3ccc4c(N)nn(C5CC5)c4c3)cc2[nH]1` [Example 84] was tested, and the IC50 was 177 nM.

`CC(=O)Nc1nn(C)c2cc(C(=O)Nc3cc4[nH]c(CN5CCC[C@@H]5C)cc4cn3)ccc12` [Example 87, 3-acetamido-1-methyl-N-(2-[[(2S)-2-methylpyrrolidin-1-yl]methyl]-1H-pyrrolo[3,2-c]pyridin-6-yl)indazole-6-carboxamide] gave an IC50 of 330 nM.

`Cc1n[nH]cc1-c1ccc(C(=O)Nc2cc3[nH]c(CN4CCC[C@@H]4C)cc3cn2)cc1` [Example 89] was tested, and the IC50 was 499 nM.

For `C[C@H]1CCCN1Cc1cc2cnc(NC(=O)c3ccc4c(c3)n(C)c(=O)n4C)cc2[nH]1` [Example 90], the IC50 was 126 nM.

For `C[C@H]1CCCN1Cc1cc2cnc(NC(=O)c3ccc(-n4cnnc4)cc3)cc2[nH]1` [Example 91], the IC50 was 707 nM.

`Cc1nn(C2COC2)c2ccc(C(=O)Nc3cc4[nH]c(CN5CCC[C@@H]5C)cc4cn3)cc12` [Example 100] was tested, and the IC50 was 214 nM.

`Cc1nn(C2CS(=O)(=O)C2)c2ccc(C(=O)Nc3cc4[nH]c(CN5CCC[C@@H]5C)cc4cn3)cc12` [Example 101] was tested, and the IC50 was 126 nM.

`Cc1nn(C(F)F)c2ccc(C(=O)Nc3cc4[nH]c(CN5CCC[C@@H]5C)cc4cn3)cc12` [Example 102] was tested, and the IC50 was 276 nM.

Work on `Cc1n[nH]c2cc(F)c(C(=O)Nc3cnc4cc(CN5CCC[C@@H]5C)[nH]c4c3)cc12` [Example 105, 6-fluoro-3-methyl-N-(2-[[(2S)-2-methylpyrrolidin-1-yl]methyl]-1H-pyrrolo[3,2-b]pyridin-6-yl)-1H-indazole-5-carboxamide] yielded an IC50 of 270 nM.

`Cc1n[nH]c2ccc(C(=O)Nc3cc4[nH]c(CN5CCC[C@@H]5C)c(F)c4cn3)cc12` [Example 107, N-(3-fluoro-2-[[(2S)-2-methylpyrrolidin-1-yl]methyl]-1H-pyrrolo[3,2-c]pyridin-6-yl)-3-methyl-1H-indazole-5-carboxamide] gave an IC50 of 94 nM.

For `Cc1n[nH]c2ccc(C(=O)Nc3cc4[nH]c(CN5CC6(C5)CC(F)(F)C6)cc4cn3)cc12` [Example 109], the IC50 was 152 nM.

`C[C@H]1CCCN1Cc1cc2nnc(NC(=O)c3ccc4c(cnn4C)c3)cc2[nH]1` [compound 19] gave an IC50 of 200 nM.

In the case of `COCCCCn1ncc2cc(C(=O)Nc3cc4[nH]c(CN5CCC[C@@H]5C)cc4cn3)ccc21` [compound 28], the IC50 is reported as 416 nM.
